Experimental data from PMC3210913 (Psychopharmacology, 2011).

Test system: serotonin 5-HT1A receptor
Experiment: in vivo PET displacement of [carbonyl-11C]WAY-100635
Parameters: species or system Macaca fascicularis
Conditions: 300 µg/kg i.v. cariprazine, raphe nuclei, ketamine/xylazine anaesthesia

serotonin 5-HT1A receptor, sequence (UPI0032B04AFA 1-422): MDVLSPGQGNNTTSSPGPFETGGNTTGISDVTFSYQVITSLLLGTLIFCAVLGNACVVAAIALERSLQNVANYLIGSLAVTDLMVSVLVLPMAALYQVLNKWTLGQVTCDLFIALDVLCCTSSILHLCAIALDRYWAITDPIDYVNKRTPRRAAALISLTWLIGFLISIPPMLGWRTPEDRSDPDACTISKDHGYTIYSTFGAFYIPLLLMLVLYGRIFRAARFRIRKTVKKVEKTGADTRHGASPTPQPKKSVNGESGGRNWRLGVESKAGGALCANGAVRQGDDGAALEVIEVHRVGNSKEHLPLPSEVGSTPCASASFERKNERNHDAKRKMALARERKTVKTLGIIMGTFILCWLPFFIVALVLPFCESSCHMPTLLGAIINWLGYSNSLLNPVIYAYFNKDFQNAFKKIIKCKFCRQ

In the case of CN(C)C(=O)N[C@H]1CC[C@H](CCN2CCN(c3cccc(Cl)c3Cl)CC2)CC1 [cariprazine], the “Receptor occupancy (%) / Cariprazine (μg/kg) / 300” value is reported as 30%.
